Results reported in patent US12091411B2, “IRAK degraders and uses thereof” (Kymera Therapeutics, Inc., priority 2022, dated 2024).
Like-named read-outs stand apart in the source and are kept apart here.

Target: T1, IRAK4 (Homo sapiens, UniProt Q9NWZ3)
T1 construct: Degradation of IRAK4 in OCI-LY10 was quantitatively measured using Meso Scale Discovery technology; endogenous in cells; host or cells: OCI-LY10
T1 sequence (Q9NWZ3 1-460): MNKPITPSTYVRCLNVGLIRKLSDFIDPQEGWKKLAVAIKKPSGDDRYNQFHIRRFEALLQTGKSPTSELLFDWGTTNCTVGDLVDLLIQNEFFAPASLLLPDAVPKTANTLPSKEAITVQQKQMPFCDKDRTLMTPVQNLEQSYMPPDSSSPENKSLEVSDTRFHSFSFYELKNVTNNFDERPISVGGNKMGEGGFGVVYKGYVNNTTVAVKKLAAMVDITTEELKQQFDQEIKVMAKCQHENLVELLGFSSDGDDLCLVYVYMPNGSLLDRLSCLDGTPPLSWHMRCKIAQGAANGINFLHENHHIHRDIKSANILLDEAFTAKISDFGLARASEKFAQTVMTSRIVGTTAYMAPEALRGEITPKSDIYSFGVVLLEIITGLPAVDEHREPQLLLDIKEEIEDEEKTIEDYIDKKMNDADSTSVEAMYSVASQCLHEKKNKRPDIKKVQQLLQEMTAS
Assay: IRAK4 MSD Degradation in OCI-LY10
Format: cell-based
Details: OCI-LY10 cells, MSD
Outline: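 DC50, from a three-parameter logistic fit and reported as letter bins A (<0.01 μM), B, C, D (>0.2 μM or not tested), reflects IRAK4 loss measured by MSD electrochemiluminescence in OCI-LY10 lysates. Treatment: 8 doses, 1:3 steps, top 1 to 10 μM, 4 to 24 h, 37 °C.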

[1] = 4 hrs incubation, read-out: IRAK4 degradation in OCI-LY10 at 4 hrs: DC50
[2] = 24 hrs incubation, read-out: IRAK4 degradation in OCI-LY10 at 24 hrs: DC50

SMILES | DC50 [1] [nM] | DC50 [2] [nM]
Cn1c(=O)n(C2CCC(=O)NC2=O)c2cccc(N3CCN(CC4CCC(n5cc(NC(=O)c6cnn7ccc(N8CC9C[C@@H]8CO9)nc67)c(C(F)F)n5)CC4)CC3)c21 (some centres unmarked) [I-189] | 10 to 100 | > 200
Cn1c(=O)n(C2CCC(=O)NC2=O)c2cccc(CN3CCN(C[C@H]4CC[C@H](n5cc(NC(=O)c6cnn7ccc(N8CC9C[C@@H]8CO9)nc67)c(C(F)F)n5)CC4)CC3)c21 (some centres unmarked) [I-190] | 10 to 100 | > 200
Cn1c(=O)n(C2CCC(=O)NC2=O)c2cccc(N3CCC(N(CC(F)(F)F)C[C@H]4CC[C@H](n5cc(NC(=O)c6cnn7cccnc67)c(C(F)F)n5)CC4)CC3)c21 (some centres unmarked) [I-313] | > 200 | > 200
COc1cc2nn([C@H]3CC[C@H](CN4CC(c5c(OC)ccc6c5n(C)c(=O)n6C5CCC(=O)NC5=O)C4)CC3)cc2cc1NC(=O)c1cccc(C(C)(C)F)n1 (some centres unmarked) [I-132] | > 200 | > 200
Cn1c(=O)n(C2CCC(=O)NC2=O)c2cccc(C#CCN3CCN(CC4CCC(n5cc(NC(=O)c6cnn7ccc(N8CC9CC8CO9)nc67)c(C(F)F)n5)CC4)CC3)c21 (centres unmarked) [I-108] | > 200 | > 200
O=C1CCC(c2cc(C#CCOC3CCN(C[C@H]4CC[C@H](n5cc(NC(=O)c6cnn7ccc(N8C[C@H]9C[C@@H]8CO9)nc67)c(C(F)F)n5)CC4)CC3)ccc2Cl)C(=O)N1 (some centres unmarked) [I-257] | > 200 | > 200
O=C1CCN(c2cccc(C#CCOC3CCN(C[C@H]4CC[C@H](n5cc(NC(=O)c6cnn7ccc(N8C[C@H]9C[C@@H]8CO9)nc67)c(C(F)F)n5)CC4)CC3)c2)C(=O)N1 [I-209] | > 200 | > 200
COc1cc2nn([C@H]3CC[C@H](CN4CCC5(CC4)CC(Oc4cccc6c4C(=O)N(C4CCC(=O)NC4=O)C6=O)C5)CC3)cc2cc1NC(=O)c1cccc(C(F)(F)F)n1 (some centres unmarked) [I-138] | > 200 | < 10
Cn1c(=O)n(C2CCC(=O)NC2=O)c2cccc(C#CCOC3CCN(CC4CCN(c5nc(C(F)F)c(NC(=O)c6cnn7ccc(N8C[C@H]9C[C@@H]8CO9)nc67)o5)CC4)CC3)c21 (some centres unmarked) [I-208] | > 200 | > 200
Cn1c(=O)n(C2CCC(=O)NC2=O)c2cccc(C#CCCOC3CCN(C[C@H]4CC[C@H](n5cc(NC(=O)c6cnn7ccc(N8C[C@H]9C[C@@H]8CO9)nc67)c(C(F)F)n5)CC4)CC3)c21 (some centres unmarked) [I-16] | < 10 | > 200
Cn1c(=O)n(C2CCC(=O)NC2=O)c2cccc(C#CCOC3CCN(C[C@H]4CC[C@H](c5nc(C(F)F)c(NC(=O)c6cnn7ccc(N8C[C@H]9C[C@@H]8CO9)nc67)o5)CC4)CC3)c21 (some centres unmarked) [I-206] | > 200 | > 200

Further lines, results first:

DC50 [1] [nM] | DC50 [2] [nM] | SMILES
> 200 | < 10 | Cn1c(=O)n(C2CCC(=O)NC2=O)c2ccc(F)c(N3CCN(C[C@H]4CC[C@H](n5cc6cc(NC(=O)c7cccc(C(F)(F)F)n7)ncc6n5)CC4)CC3)c21 (some centres unmarked) [I-694]
> 200 | > 200 | CN(CC[C@H]1CC[C@H](n2cc(NC(=O)c3cnn4cccnc34)c(C(F)F)n2)CC1)C1CCN(c2cccc3c2n(C)c(=O)n3C2CCC(=O)NC2=O)CC1(F)F (some centres unmarked) [I-503]
> 200 | > 200 | COc1ccc2c(c1C1CCN(C[C@H]3CC[C@H](n4cc5cc(NC(=O)c6cccc(C(F)(F)F)n6)ncc5n4)CC3)CC1F)n(C)c(=O)n2C1CCC(=O)NC1=O (some centres unmarked) [I-546]
> 200 | > 200 | C[C@@H]1CN(c2ccn3ncc(C(=O)Nc4cn([C@H]5CC[C@H](CN6CCN(CC#Cc7cccc8c7n(C)c(=O)n8C7CCC(=O)NC7=O)CC6)CC5)nc4C(F)F)c3n2)C[C@H](C)O1 (some centres unmarked) [I-429]
> 200 | > 200 | CN1CCN(c2ccn3ncc(C(=O)Nc4cn([C@H]5CC[C@H](CN6CCN(CC#Cc7cccc8c7n(C)c(=O)n8C7CCC(=O)NC7=O)CC6)CC5)nc4C(F)F)c3n2)CC1C(F)(F)F (some centres unmarked) [I-412]
> 200 | < 10 | Cn1c(=O)n(C2CCC(=O)NC2=O)c2cccc(C3CN([C@H]4CCN(C[C@H]5CC[C@H](n6cc7cc(NC(=O)c8cccc(C(F)(F)F)n8)ncc7n6)CC5)C[C@@H]4F)C3)c21 (some centres unmarked) [I-672]
> 200 | > 200 | Cn1c(=O)n(C2CCC(=O)NC2=O)c2cccc(N3CCN(CC4COC5(C4)CN(C[C@H]4CC[C@H](n6cc7cc(NC(=O)c8cccc(C(F)(F)F)n8)c(C(C)(C)O)cc7n6)CC4)C5)CC3)c21 (some centres unmarked) [I-663]
> 200 | > 200 | O=C1CCN(c2cccc(C#CCN3CCN(C[C@H]4CC[C@@H](n5cc(NC(=O)c6cnn7ccc(N8CC9CCC(C8)O9)nc67)c(C(F)F)n5)CC4)CC3)c2)C(=O)N1 [I-435]
